Target: T1, human GST-PIKFYVE (Homo sapiens, UniProt Q9Y2I7)
T1 construct: GST; purchased Carna biosciences 11-118
Assay: ADP-Glo kinase assay, enzyme inhibition activity against human PIKFYVE (Carna biosciences)
Format: biochemical
Settings: inhibitory activity at final compound concentration 10 nM; 1 hour at room temperature
Protocol: The enzyme inhibition activity values for the compounds according to Examples against human PIKFYVE were calculated using the ADP-Glo™ kinase assay service of Carna biosciences, Inc. The enzyme activity evaluation method provided by Carna biosciences Inc., is shown below.
Enzyme inhibition activity was evaluated by reacting the compounds according to Examples with human GST-PIKFYVE (11-118, Carna biosciences), which was purified using glutathione Sepharose chromatography. The reaction buffer used was composed of 50 mmol/L MOPS, 1 mmol/L DTT, and pH 7.2, and all reactions of the test distilled water were performed in the buffer.
Compounds were prepared as solutions in 100% DMSO as 100× stocks and adjusted to have a final sample concentration of 10 nM.
The substrate-enzyme reaction for PIKFYVE was performed by mixing 5 μL human GST-PIKFYVE, 5 μL compounds according to Examples, 5 μL enzyme substrate, and 5 μL purified ATP and reacting for 1 hour at room temperature. After the substrate-enzyme reaction, 20 μL ADP-Glo™ Reagent was added and reacted at room temperature for 40 minutes, then 40 μL Kinase Detection Reagent was added and reacted at room temperature for 40 minutes.
After completion of the reaction, the degree of enzyme activity inhibition was measured by luminescence. The fluorescence of the enzyme activity in the solvent control group […] was set to 100%, and the fluorescence of the enzyme activity in the solvent control group without compound treatment was set to 0%. The inhibitory activity of each compound according to Examples was calculated based on these values.

T1 sequence (Q9Y2I7 whole entry): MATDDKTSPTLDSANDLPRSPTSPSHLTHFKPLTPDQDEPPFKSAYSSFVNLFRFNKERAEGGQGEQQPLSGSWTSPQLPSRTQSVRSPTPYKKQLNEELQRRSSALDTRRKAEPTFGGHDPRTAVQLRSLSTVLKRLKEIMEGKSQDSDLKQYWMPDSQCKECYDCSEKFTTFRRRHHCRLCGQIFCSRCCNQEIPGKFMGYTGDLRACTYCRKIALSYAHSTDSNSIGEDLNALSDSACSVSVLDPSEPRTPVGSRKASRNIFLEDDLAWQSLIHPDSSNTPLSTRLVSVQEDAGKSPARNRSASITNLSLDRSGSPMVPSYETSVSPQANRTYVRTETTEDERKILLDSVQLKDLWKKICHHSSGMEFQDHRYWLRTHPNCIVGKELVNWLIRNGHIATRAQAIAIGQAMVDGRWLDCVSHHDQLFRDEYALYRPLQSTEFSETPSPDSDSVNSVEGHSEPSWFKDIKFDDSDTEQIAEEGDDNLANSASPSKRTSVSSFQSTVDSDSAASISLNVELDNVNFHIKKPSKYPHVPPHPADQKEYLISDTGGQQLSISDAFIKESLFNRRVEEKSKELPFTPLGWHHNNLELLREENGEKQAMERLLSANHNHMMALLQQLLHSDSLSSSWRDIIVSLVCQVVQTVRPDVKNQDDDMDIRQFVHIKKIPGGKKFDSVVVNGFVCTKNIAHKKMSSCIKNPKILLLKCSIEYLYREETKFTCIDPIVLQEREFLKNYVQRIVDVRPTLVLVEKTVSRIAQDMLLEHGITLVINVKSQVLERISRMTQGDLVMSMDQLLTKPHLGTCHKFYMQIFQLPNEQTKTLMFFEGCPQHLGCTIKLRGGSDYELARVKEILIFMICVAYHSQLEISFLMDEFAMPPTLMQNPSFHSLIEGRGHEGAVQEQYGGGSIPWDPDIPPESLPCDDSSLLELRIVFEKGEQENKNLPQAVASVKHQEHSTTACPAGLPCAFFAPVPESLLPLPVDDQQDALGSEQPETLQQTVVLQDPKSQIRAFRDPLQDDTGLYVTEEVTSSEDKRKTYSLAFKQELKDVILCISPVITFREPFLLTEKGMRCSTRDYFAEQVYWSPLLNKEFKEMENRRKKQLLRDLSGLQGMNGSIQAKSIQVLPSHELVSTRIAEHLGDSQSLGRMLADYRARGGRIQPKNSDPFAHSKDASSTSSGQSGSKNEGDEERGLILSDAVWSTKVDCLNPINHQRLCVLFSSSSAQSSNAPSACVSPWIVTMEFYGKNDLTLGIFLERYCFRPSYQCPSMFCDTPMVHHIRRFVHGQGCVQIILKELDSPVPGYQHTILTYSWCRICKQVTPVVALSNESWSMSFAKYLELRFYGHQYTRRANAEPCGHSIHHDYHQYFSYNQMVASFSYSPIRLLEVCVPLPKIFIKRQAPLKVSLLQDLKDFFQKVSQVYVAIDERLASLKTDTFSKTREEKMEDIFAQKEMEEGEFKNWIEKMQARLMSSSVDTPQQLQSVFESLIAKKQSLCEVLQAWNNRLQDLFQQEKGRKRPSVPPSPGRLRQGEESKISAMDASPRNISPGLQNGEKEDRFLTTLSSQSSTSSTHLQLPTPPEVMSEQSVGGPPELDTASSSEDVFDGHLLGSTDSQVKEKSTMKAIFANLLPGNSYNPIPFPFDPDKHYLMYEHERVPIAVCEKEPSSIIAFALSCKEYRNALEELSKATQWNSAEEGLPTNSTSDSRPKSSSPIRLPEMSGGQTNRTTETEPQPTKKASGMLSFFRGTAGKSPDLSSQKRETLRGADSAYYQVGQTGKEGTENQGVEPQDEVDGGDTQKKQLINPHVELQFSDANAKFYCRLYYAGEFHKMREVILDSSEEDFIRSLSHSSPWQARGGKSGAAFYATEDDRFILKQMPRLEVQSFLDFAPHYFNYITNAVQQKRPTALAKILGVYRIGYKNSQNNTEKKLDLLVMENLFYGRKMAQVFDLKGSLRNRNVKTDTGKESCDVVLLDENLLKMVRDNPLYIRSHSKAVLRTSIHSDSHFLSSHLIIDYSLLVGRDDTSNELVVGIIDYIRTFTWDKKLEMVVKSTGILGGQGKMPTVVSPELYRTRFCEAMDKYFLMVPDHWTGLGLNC

ADP-Glo kinase assay (%, 10 nM) [%] | SMILES
51.47 | Cc1cccc(/C=N/Nc2nc(N3CCOCC3)nc3c(-c4ccccc4)cn(C)c23)c1 [Example 9, (E)-4-(5-methyl-4-(2-(3-methylbenzylidene)hydrazinyl)-7-phenyl-5H-pyrrolo[3,2-d]pyrimidin-2-yl)morpholine]
51.68 | Cc1cccc(/C=N/Nc2nc(N3CCOCC3)nc3c2cnn3-c2cccnc2)c1 [Example 13, (E)-4-(4-(2-(3-methylbenzylidene)hydrazinyl)-1-(pyridin-3-yl)-1H-pyrazolo[3,4-d]pyrimidin-6-yl)morpholine]
63.02 | Cc1cccc(/C=N/Nc2nc(N3CCOCC3)nc3c2cnn3-c2ccncc2)c1 [Example 16, (E)-4-(4-(2-(3-methylbenzylidene)hydrazinyl)-1-(pyridin-4-yl)-1H-pyrazolo[3,4-d]pyrimidin-6-yl)morpholine]
58.67 | Cc1cccc(/C=N/Nc2nc(N3CCOCC3)nc3c2ncn3CC(=O)C2CC2)c1 [Example 19, (E)-1-cyclopropyl-2-(6-(2-(3-methylbenzylidene)hydrazinyl)-2-morpholino-9H-purin-9-yl)ethan-1-one]
55.15 | Cc1cccc(/C=N/Nc2nc(N3CCOCC3)nc3c2ncn3CC(=O)N2CCc3ccccc32)c1 [Example 29, (E)-1-(indolin-1-yl)-2-(6-(2-(3-methylbenzylidene)hydrazinyl)-2-morpholino-9H-purin-9-yl)ethan-1-one]
82.96 | COc1cccc(C(=O)Cn2cnc3c(N/N=C/c4cccc(C)c4)nc(N4CCOCC4)nc32)c1 [Example 38, (E)-1-(3-methoxyphenyl)-2-(6-(2-(3-methylbenzylidene)hydrazinyl)-2-morpholino-9H-purin-9-yl)ethan-1-one]
60.82 | Cc1cccc(/C=N/Nc2nc(N3CCOCC3)nc3c2ncn3CC(=O)c2ccc(F)cc2)c1 [Example 47, (E)-1-(4-fluorophenyl)-2-(6-(2-(3-methylbenzylidene)hydrazinyl)-2-morpholino-9H-purin-9-yl)ethan-1-one]
54.37 | Cc1cccc(/C=N/Nc2nc(N3CCOCC3)nc3c2ncn3CC(=O)c2cccc(OC(F)(F)F)c2)c1 [Example 50, (E)-2-(6-(2-(3-methylbenzylidene)hydrazinyl)-2-morpholino-9H-purin-9-yl)-1-(3-(trifluoromethoxy)phenyl)ethan-1-one]
66.19 | Cc1cccc(/C=N/Nc2nc(N3CCOCC3)nc3c2ncn3CC(=O)c2ccc(N3CCOCC3)cc2N2CCOCC2)c1 [Example 51, (E)-1-(2,4-dimorpholinophenyl)-2-(6-(2-(3-methylbenzylidene)hydrazinyl)-2-morpholino-9H-purin-9-yl)ethan-1-one]
58.10 | Cc1cccc(/C=N/Nc2nc(N3CCOCC3)nc3c2ncn3CC(=O)c2cnccn2)c1 [Example 54, (E)-2-(6-(2-(3-methylbenzylidene)hydrazinyl)-2-morpholino-9H-purin-9-yl)-1-(pyrazin-2-yl)ethan-1-one]
56.03 | COc1cccc(-c2ccn(-c3nc(N4CCOCC4)nc4c3ncn4CC(=O)c3ccccn3)n2)c1 [Example 68, 2-(6-(3-(3-methoxyphenyl)-1H-pyrazol-1-yl)-2-morpholino-9H-purin-9-yl)-1-(pyridin-2-yl)ethan-1-one]
60.34 | Cc1cccc(/C=N/Nc2nc(N3CCOCC3)nc3c2ncn3C2CN(C(=O)c3ccccc3)C2)c1 [Example 81, (E)-(3-(6-(2-(3-methylbenzylidene)hydrazinyl)-2-morpholino-9H-purin-9-yl)azetidin-1-yl)(phenyl)methanone]
60.95 | Cc1cccc(/C=N/Nc2nc(N3CCOCC3)nc3c2ncn3C2CN(C(=O)c3cccnc3)C2)c1 [Example 82, (E)-3-(6-(2-(3-methylbenzylidene)hydrazinyl)-2-morpholino-9H-purin-9-yl)azetidin-1-yl (pyridin-3-yl)methanone]
63.61 | COC(=O)N1CC(n2cnc3c(N/N=C/c4cccc(C)c4)nc(N4CCOCC4)nc32)C1 [Example 83, methyl (E)-3-(6-(2-(3-methylbenzylidene)hydrazinyl)-2-morpholino-9H-purin-9-yl)azetidine-1-carboxylate]
58.50 | Cc1cccc(/C=N/Nc2nc(N3CCOCC3)nc3c2ncn3C2CCN(C(=O)c3ccccn3)CC2)c1 [Example 94, (E)-(4-(6-(2-(3-methylbenzylidene)hydrazinyl)-2-morpholino-9H-purin-9-yl)piperidin-1-yl)(pyridin-2-yl)methanone]
91.62 | Cc1cccc(/C=N/Nc2nc(N3C[C@H]4C[C@@H]3CO4)nc3c2ncn3-c2cccnc2)c1 [Example 98, (1R,4R)-5-(6-(2-(3-methylbenzylidene)hydrazinyl)-9-(pyridin-3-yl)-9H-purin-2-yl)-oxa-5-azabicyclo[2.2.1]heptane]
67.79 | Cc1cccc(/C=N/Nc2nc(N3CCOCC3)nc3c2ncn3-c2nccs2)c1 [Example 117, (E)-4-(6-(2-(3-methylbenzylidene)hydrazinyl)-9-(thiazol-2-yl)-9H-purin-2-yl)morpholine]
69.14 | Cc1cccc(/C=N/Nc2nc(N3CCOCC3)nc3c2ncn3-c2cccc(C(F)(F)F)c2)c1 [Example 130, (E)-4-(6-(2-(3-methylbenzylidene)hydrazinyl)-9-(3-(trifluoromethyl)phenyl)-9H-purin-2-yl)morpholine]
59.84 | COc1ccc(-n2cnc3c(-n4ccc(-c5cccc(C)c5)n4)nc(N4CCOCC4)nc32)cc1 [Example 134, 4-(9-(4-methoxyphenyl)-6-(3-(m-tolyl)-1H-pyrazol-1-yl)-9H-purin-2-yl)morpholine]
51.18 | Cc1cccc(-c2ccn(-c3nc(N4CCOCC4)nc4c3ncn4-c3cccc(Cl)c3)n2)c1 [Example 135, 4-(9-(3-chlorophenyl)-6-(3-(m-tolyl)-1H-pyrazol-1-yl)-9H-purin-2-yl)morpholine]
64.23 | Cc1cccc(-c2ccn(-c3nc(N4CCOCC4)nc4c3ncn4-c3cccc(OC4CC4)c3)n2)c1 [Example 138, 4-(9-(3-cyclopropoxyphenyl)-6-(3-(m-tolyl)-1H-pyrazol-1-yl)-9H-purin-2-yl)morpholine]
68.43 | Cc1cccc(/C=N/Nc2nc(N3CCOCC3)nc3c2ncn3-c2ncccc2C)c1 [Example 142, (E)-4-(6-(2-(3-methylbenzylidene)hydrazinyl)-9-(3-methylpyridin-2-yl)-9H-purin-2-yl)morpholine]
63.58 | Cc1cccc(/C=N/Nc2nc(N3CCOCC3)nc3c2nc(C)n3-c2cc(C)n(C)n2)c1 [Example 153, (E)-4-(9-(1,5-dimethyl-1H-pyrazol-3-yl)-8-methyl-6-(2-(3-methylbenzylidene)hydrazinyl)-9H-purin-2-yl)morpholine]
65.90 | Cc1cccc(/C=N/Nc2nc(N3CCOCC3)nc3c2nc(C)n3CC(=O)c2ccccc2)c1 [Example 156, (E)-2-(8-methyl-6-(2-(3-methylbenzylidene)hydrazinyl)-2-morpholino-9H-purin-9-yl)-1-phenylethan-1-one]
63.93 | Cc1cccc(/C=N/Nc2nc(N3CCOCC3)nc3c2nc(C)n3CC(=O)c2cccnc2)c1 [Example 158, (E)-2-(8-methyl-6-(2-(3-methylbenzylidene)hydrazinyl)-2-morpholino-9H-purin-9-yl)-1-(pyridin-3-yl)ethan-1-one]
65.33 | Cc1cccc(/C=N/Nc2nc(N3CCOCC3)nc3c2nc(C)n3CC(=O)c2ccncc2)c1 [Example 159, (E)-2-(8-methyl-6-(2-(3-methylbenzylidene)hydrazinyl)-2-morpholino-9H-purin-9-yl)-1-(pyridin-4-yl)ethan-1-one]
77.75 | COc1cccc(-n2c(C)nc3c(N/N=C/c4cccc(C)c4)nc(N4CCOCC4)nc32)c1 [Example 160, (E)-4-(9-(3-methoxyphenyl)-8-methyl-6-(2-(3-methylbenzylidene)hydrazinyl)-9H-purin-2-yl)morpholine]
79.72 | COc1ccc(-n2c(C)nc3c(N/N=C/c4cccc(C)c4)nc(N4CCOCC4)nc32)cc1 [Example 161, (E)-4-(9-(4-methoxyphenyl)-8-methyl-6-(2-(3-methylbenzylidene)hydrazinyl)-9H-purin-2-yl)morpholine]
78.79 | Cc1cccc(/C=N/Nc2nc(N3CCOCC3)nc3c2nc(C)n3-c2cccc(F)c2)c1 [Example 162, (E)-4-(9-(3-fluorophenyl)-8-methyl-6-(2-(3-methylbenzylidene)hydrazinyl)-9H-purin-2-yl)morpholine]
54.29 | Cc1cccc(/C=N/Nc2nc(N3CCOCC3)nc3c2nc(C)n3-c2cccc(Cl)c2)c1 [Example 163, (E)-4-(9-(3-chlorophenyl)-8-methyl-6-(2-(3-methylbenzylidene)hydrazinyl)-9H-purin-2-yl)morpholine]
